US20240376084A1, “INHIBITORS OF ALPHA-HEMOLYSIN OF STAPHYLOCOCCUS AUREUS” (Helmholtz-Zentrum Fur Infektionsforschung GmbH, priority 2021, published 2024)

biological target: hemolysin alpha from Staphylococcus aureus (Staphylococcus aureus, UniProt P09616); assay: cell-based; conditions: not given
Sequence (P09616 27-319 limits assumed): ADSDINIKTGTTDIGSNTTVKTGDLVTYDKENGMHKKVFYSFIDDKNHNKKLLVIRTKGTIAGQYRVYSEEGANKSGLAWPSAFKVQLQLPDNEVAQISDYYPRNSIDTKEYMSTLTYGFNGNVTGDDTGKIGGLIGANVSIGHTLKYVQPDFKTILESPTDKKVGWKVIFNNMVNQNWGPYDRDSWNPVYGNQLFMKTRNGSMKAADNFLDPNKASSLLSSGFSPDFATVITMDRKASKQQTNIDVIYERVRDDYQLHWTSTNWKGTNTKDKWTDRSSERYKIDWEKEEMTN

SMILES	IC50	EC50
O=c1[nH]c2cc(F)c(S(=O)(=O)Nc3ccc(-c4ccccc4)cc3)cc2[nH]c1=O [Compound 64, N-([1,1′-biphenyl]-4-yl)-7-fluoro-2,3-dioxo-1,2,3,4-tetrahydroquinoxaline-6-sulfonamide]	0.03 to 0.1 µM	–
CCc1ccccc1-c1c(C)cc(NS(=O)(=O)c2cc3[nH]c(=O)c(=O)[nH]c3cc2C)cc1C [Compound 134, N-(2′-ethyl-2,6-dimethyl-[1,1′-biphenyl]-4-yl)-7-methyl-2,3-dioxo-1,2,3,4-tetrahydroquinoxaline-6-sulfonamide]	0.1 to 1 µM	–
Cc1cc2[nH]c(=O)c(=O)[nH]c2cc1S(=O)(=O)Nc1ccc(N2CCOCC2)cc1 [Compound 180, 7-methyl-N-(4-morpholinophenyl)-2,3-dioxo-1,2,3,4-tetrahydroquinoxaline-6-sulfonamide]	1 to 3.5 µM	–
Cc1cc2[nH]c(=O)c(=O)[nH]c2cc1S(=O)(=O)Nc1ccc2c(c1)OC(F)(F)O2 [Compound 241, N-(2,2-difluorobenzo[d][1,3]dioxol-5-yl)-7-methyl-2,3-dioxo-1,2,3,4-tetrahydroquinoxaline-6-sulfonamide]	–	0.1 to 1 µM
Cc1cc2[nH]c(=O)c(=O)[nH]c2cc1S(=O)(=O)Nc1ccc(OC(F)(F)F)cn1 [Compound 222, 7-methyl-2,3-dioxo-N-(5-(trifluoromethoxy)pyridin-2-yl)-1,2,3,4-tetrahydroquinoxaline-6-sulfonamide]	–	0.1 to 1 µM
O=c1[nH]c2cc(F)c(S(=O)(=O)Nc3ccc(C(F)(F)F)cc3)cc2[nH]c1=O [Compound 160, 7-fluoro-2,3-dioxo-N-(4-(trifluoromethyl)phenyl)-1,2,3,4-tetrahydroquinoxaline-6-sulfonamide]	1 to 3.5 µM	–
O=c1[nH]c2cc(F)c(S(=O)(=O)Nc3ccc4c(c3)CCCC4)cc2[nH]c1=O [Compound 164, 7-fluoro-2,3-dioxo-N-(5,6,7,8-tetrahydronaphthalen-2-yl)-1,2,3,4-tetrahydroquinoxaline-6-sulfonamide]	0.1 to 1 µM	–
Cc1cc(NS(=O)(=O)c2cc3[nH]c(=O)c(=O)[nH]c3cc2F)ccc1Br [Compound 163, N-(4-bromo-3-methylphenyl)-7-fluoro-2,3-dioxo-1,2,3,4-tetrahydroquinoxaline-6-sulfonamide]	0.1 to 1 µM	–
CC(C)c1cc2[nH]c(=O)c(=O)[nH]c2cc1S(=O)(=O)Nc1ccc(-c2ccncc2)c(Cl)c1 [Compound 159, N-(3-chloro-4-(pyridin-4-yl)phenyl)-7-isopropyl-2,3-dioxo-1,2,3,4-tetrahydroquinoxaline-6-sulfonamide]	1 to 3.5 µM	–
Cc1cc2[nH]c(=O)c(=O)[nH]c2cc1S(=O)(=O)Nc1ccc(N(C)C)cc1 [Compound 133, N-(4-(dimethylamino)phenyl)-7-methyl-2,3-dioxo-1,2,3,4-tetrahydroquinoxaline-6-sulfonamide]	0.1 to 1 µM	–
Cc1cc2[nH]c(=O)c(=O)[nH]c2cc1S(=O)(=O)Nc1nc(C)c(-c2ccccc2)s1 [Compound 240, 7-methyl-N-(4-methyl-5-phenylthiazol-2-yl)-2,3-dioxo-1,2,3,4-tetrahydroquinoxaline-6-sulfonamide]	–	1 to 3.5 µM
Cc1cc(NS(=O)(=O)c2cc3[nH]c(=O)c(=O)[nH]c3cc2F)cc(C)c1-c1ccncc1 [Compound 167, N-(3,5-dimethyl-4-(pyridin-4-yl)phenyl)-7-fluoro-2,3-dioxo-1,2,3,4-tetrahydroquinoxaline-6-sulfonamide]	1 to 3.5 µM	–
O=c1[nH]c2cc(OC(F)(F)F)c(S(=O)(=O)Nc3ccc(OC(F)(F)F)cc3)cc2[nH]c1=O [Compound 192, 2,3-dioxo-7-(trifluoromethoxy)-N-(4-(trifluoromethoxy)phenyl)-1,2,3,4-tetrahydroquinoxaline-6-sulfonamide]	–	0.1 to 1 µM
Cc1cc2[nH]c(=O)c(=O)[nH]c2cc1S(=O)(=O)Nc1ccc(-c2cncc(Cl)c2)c(Cl)c1 [Compound 189, N-(3-chloro-4-(5-chloropyridin-3-yl)phenyl)-7-methyl-2,3-dioxo-1,2,3,4-tetrahydroquinoxaline-6-sulfonamide]	0.03 to 0.1 µM	–
COc1cc2[nH]c(=O)c(=O)[nH]c2cc1S(=O)(=O)Nc1ccc(OC(F)(F)F)cc1 [Compound 193, 7-methoxy-2,3-dioxo-N-(4-(trifluoromethoxy)phenyl)-1,2,3,4-tetrahydroquinoxaline-6-sulfonamide]	–	0.1 to 1 µM
Cc1cc2[nH]c(=O)c(=O)[nH]c2cc1S(=O)(=O)Nc1cc(Cl)c(-c2ccc(F)cc2)cn1 [Compound 212, N-(4-chloro-5-(4-fluorophenyl)pyridin-2-yl)-7-methyl-2,3-dioxo-1,2,3,4-tetrahydroquinoxaline-6-sulfonamide]	–	0.03 to 0.1 µM
Cc1cc2[nH]c(=O)c(=O)[nH]c2cc1S(=O)(=O)Nc1cc(C)c(-c2cnn(C)c2)c(C)c1 [Compound 184, N-(3,5-dimethyl-4-(1-methyl-1H-pyrazol-4-yl)phenyl)-7-methyl-2,3-dioxo-1,2,3,4-tetrahydroquinoxaline-6-sulfonamide]	1 to 3.5 µM	–
CC(C)c1cc2[nH]c(=O)c(=O)[nH]c2cc1S(=O)(=O)Nc1ccc(Br)c(Cl)c1 [Compound 154, N-(4-bromo-3-chlorophenyl)-7-isopropyl-2,3-dioxo-1,2,3,4-tetrahydroquinoxaline-6-sulfonamide]	0.1 to 1 µM	–

SMILES	IC50	EC50
Cc1cc(NS(=O)(=O)c2cc3[nH]c(=O)c(=O)[nH]c3cc2Cl)cc(C)c1-c1ccsc1 [Compound 80, 7-chloro-N-(3,5-dimethyl-4-(thiophen-3-yl)phenyl)-2,3-dioxo-1,2,3,4-tetrahydroquinoxaline-6-sulfonamide]	0.1 to 1 µM	–
Cc1cc2[nH]c(=O)c(=O)[nH]c2cc1S(=O)(=O)Nc1ccc2ncccc2c1 [Compound 186, 7-methyl-2,3-dioxo-N-(quinolin-6-yl)-1,2,3,4-tetrahydroquinoxaline-6-sulfonamide]	1 to 3.5 µM	–
O=c1[nH]c2cc(Br)c(S(=O)(=O)Nc3ccc(C4CC4)cc3)cc2[nH]c1=O [Compound 96, 7-bromo-N-(4-cyclopropylphenyl)-2,3-dioxo-1,2,3,4-tetrahydroquinoxaline-6-sulfonamide]	0.1 to 1 µM	–
Cc1ccc(NS(=O)(=O)c2cc3[nH]c(=O)c(=O)[nH]c3cc2C)cc1Cl [Compound 181, N-(3-chloro-4-methylphenyl)-7-methyl-2,3-dioxo-1,2,3,4-tetrahydroquinoxaline-6-sulfonamide]	1 to 3.5 µM	–
CCCc1ccc(NS(=O)(=O)c2cc3[nH]c(=O)c(=O)[nH]c3cc2C(C)C)cc1 [Compound 151, 7-isopropyl-2,3-dioxo-N-(4-propylphenyl)-1,2,3,4-tetrahydroquinoxaline-6-sulfonamide]	0.1 to 1 µM	–
Cc1cc(NS(=O)(=O)c2cc3[nH]c(=O)c(=O)[nH]c3cc2Cl)cc(C)c1Br [Compound 145, N-(4-bromo-3,5-dimethylphenyl)-7-chloro-2,3-dioxo-1,2,3,4-tetrahydroquinoxaline-6-sulfonamide]	0.1 to 1 µM	–
O=c1[nH]c2cc(F)c(S(=O)(=O)Nc3ccc4ccccc4c3)cc2[nH]c1=O [Compound 95, 7-fluoro-N-(naphthalen-2-yl)-2,3-dioxo-1,2,3,4-tetrahydroquinoxaline-6-sulfonamide]	0.1 to 1 µM	–
Cc1cc2[nH]c(=O)c(=O)[nH]c2cc1S(=O)(=O)Nc1ccc(C#N)cc1 [Compound 129, N-(4-cyanophenyl)-7-methyl-2,3-dioxo-1,2,3,4-tetrahydroquinoxaline-6-sulfonamide]	1 to 3.5 µM	–
Cc1cc(NS(=O)(=O)c2cc3[nH]c(=O)c(=O)[nH]c3cc2F)ccc1-c1ccncc1 [Compound 169, 7-fluoro-N-(3-methyl-4-(pyridin-4-yl)phenyl)-2,3-dioxo-1,2,3,4-tetrahydroquinoxaline-6-sulfonamide]	0.1 to 1 µM	–
Cc1cc(NS(=O)(=O)c2cc3[nH]c(=O)c(=O)[nH]c3cc2Cl)ccc1-c1ccncc1 [Compound 155, 7-chloro-N-(3-methyl-4-(pyridin-4-yl)phenyl)-2,3-dioxo-1,2,3,4-tetrahydroquinoxaline-6-sulfonamide]	0.1 to 1 µM	–
O=c1[nH]c2cc(F)c(S(=O)(=O)Nc3ccc(C(F)(F)F)c(Cl)c3)cc2[nH]c1=O [Compound 165, N-(3-chloro-4-(trifluoromethyl)phenyl)-7-fluoro-2,3-dioxo-1,2,3,4-tetrahydroquinoxaline-6-sulfonamide]	1 to 3.5 µM	–
Cc1cc2[nH]c(=O)c(=O)[nH]c2cc1S(=O)(=O)Nc1ccc(-c2c(C)cccc2C)cc1 [Compound 116, N-(2′,6′-dimethyl-[1,1′-biphenyl]-4-yl)-7-methyl-2,3-dioxo-1,2,3,4-tetrahydroquinoxaline-6-sulfonamide]	0.1 to 1 µM	–
Cc1cc2[nH]c(=O)c(=O)[nH]c2cc1S(=O)(=O)Nc1cc(C)c(-c2ccnn2C)c(C)c1 [Compound 188, N-(3,5-dimethyl-4-(1-methyl-1H-pyrazol-5-yl)phenyl)-7-methyl-2,3-dioxo-1,2,3,4-tetrahydroquinoxaline-6-sulfonamide]	1 to 3.5 µM	–
CC(C)c1cc2[nH]c(=O)c(=O)[nH]c2cc1S(=O)(=O)Nc1ccc(-c2ccoc2)c(Cl)c1 [Compound 161, N-(3-chloro-4-(furan-3-yl)phenyl)-7-isopropyl-2,3-dioxo-1,2,3,4-tetrahydroquinoxaline-6-sulfonamide]	0.1 to 1 µM	–
CCOc1ccc(NS(=O)(=O)c2cc3[nH]c(=O)c(=O)[nH]c3cc2C)cc1 [Compound 111, N-(4-ethoxyphenyl)-7-methyl-2,3-dioxo-1,2,3,4-tetrahydroquinoxaline-6-sulfonamide]	0.1 to 1 µM	–
Cc1cc2[nH]c(=O)c(=O)[nH]c2cc1S(=O)(=O)Nc1ccc(OC(F)(F)F)nc1 [Compound 223, 7-methyl-2,3-dioxo-N-(6-(trifluoromethoxy)pyridin-3-yl)-1,2,3,4-tetrahydroquinoxaline-6-sulfonamide]	–	0.1 to 1 µM
CC(C)c1cc2[nH]c(=O)c(=O)[nH]c2cc1S(=O)(=O)Nc1ccc(-c2cccc(Cl)c2)c(Cl)c1 [Compound 178, N-(2,3′-dichloro-[1,1′-biphenyl]-4-yl)-7-isopropyl-2,3-dioxo-1,2,3,4-tetrahydroquinoxaline-6-sulfonamide]	0.1 to 1 µM	–

biological target: S. aureus Alpha hemolysin (Staphylococcus aureus, UniProt P09616); assay: cell-based; conditions: A549-LDH Assay activity
Sequence (P09616 27-319 limits assumed): as above

SMILES	EC50
O=c1[nH]c2cc(F)c(S(=O)(=O)Nc3ccc(-c4ccccc4)cc3)cc2[nH]c1=O [Compound 64, N-([1,1′-biphenyl]-4-yl)-7-fluoro-2,3-dioxo-1,2,3,4-tetrahydroquinoxaline-6-sulfonamide]	0.1 to 1 µM
CCc1ccccc1-c1c(C)cc(NS(=O)(=O)c2cc3[nH]c(=O)c(=O)[nH]c3cc2C)cc1C [Compound 134, N-(2′-ethyl-2,6-dimethyl-[1,1′-biphenyl]-4-yl)-7-methyl-2,3-dioxo-1,2,3,4-tetrahydroquinoxaline-6-sulfonamide]	0.03 to 0.1 µM
